The source of these data is US10822311B2, “Pyrimidines and variants thereof, and uses therefor” (Afferent Pharmaceuticals Inc., priority 2016, dated 2020).

Experiment [1] addresses T1, human P2X3 receptor (homomeric P2X3 channels) (Homo sapiens, UniProt P56373).
T1 construct: expressed in transfected cells; host or cells: HEK293 human embryonic kidney cells (HEK-hP2X3)
T1 sequence (P56373 1-397): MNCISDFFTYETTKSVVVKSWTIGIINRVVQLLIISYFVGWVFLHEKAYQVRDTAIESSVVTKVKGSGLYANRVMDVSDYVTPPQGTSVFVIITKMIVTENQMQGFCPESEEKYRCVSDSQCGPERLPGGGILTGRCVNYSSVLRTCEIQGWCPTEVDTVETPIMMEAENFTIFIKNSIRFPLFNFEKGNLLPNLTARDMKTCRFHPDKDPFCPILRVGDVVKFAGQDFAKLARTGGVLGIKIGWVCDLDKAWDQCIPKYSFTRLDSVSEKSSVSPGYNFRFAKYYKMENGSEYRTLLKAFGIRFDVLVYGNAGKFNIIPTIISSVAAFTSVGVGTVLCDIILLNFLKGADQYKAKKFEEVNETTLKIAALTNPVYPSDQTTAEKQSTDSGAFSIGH
Briefly: FlexStation calcium fluorescence assay, homomeric P2X3 channels in HEK293 cells. The class given is cell-based. The following applies: for IC50: HEK293 cells, hP2X3, agonist 1 μM α,β-meATP, read-out: Average pIC50 P2X3 (converted); for Selectivity P2X3/P2X2/3: Ratio=10^(P2X3pIC50−P2X2/3pIC50); for Selectivity, R = OMe / P2X3 mean pIC50, R = OMe: Table 3B; for Selectivity, R = OMe: P2X3 vs P2X2/3 potency ratio; for P2X3 mean pIC50, R = OMe / P2X3 mean pIC50, X = S: hP2X3, HEK293 cells; for P2X3 mean pIC50, R = OMe: Table 2; for P2X3 mean pIC50, X = S: Table 3A, sulfur-linked. As to the method:
(§1) 1321N1 human astrocytoma and HEK293 human embryonic kidney cells were stably transfected with human P2X2 and P2X3 receptor subunits to form heteromeric P2X2/3 channels and passaged in flasks. Additionally, HEK293 cells were stably transfected with human P2X3 receptor subunits to form homomeric P2X3 channels.
(§2) Approximately 24 hours before the FlexStation calcium fluorescence experiment, cells were released from their flasks, centrifuged and re-suspended in nutrient medium. The cells were aliquoted into black-wall, clear-bottom 96 well plates at a density of 25,000 cells per well and incubated overnight in a humidified, CO2-enriched (5%) atmosphere at 37° C.
(§3) On the day of the experiment, cells were washed with assay buffer (calcium- and magnesium-free Hank's balanced salt solution, 20 mM HEPES, 2 mM CaCl2; AB) and loaded with 4 μM Fluo-4 (P2X2/3) or Calcium 6 (Molecular Devices, according to manufacturer's instructions; P2X3) calcium-sensitive fluorescent dye in 100 μL AB.
(§4) After 1 hour of dye loading at 37° C., 1321N1-hP2X2/3 cells were washed two times with AB and test compound or vehicle added to each well in a total volume of 150 μL AB. HEK-hP2X3 cells were not washed because the Calcium 6 dye kit includes an extracellular dye that quenches unabsorbed Calcium 6 dye; test compound or vehicle were added directly to the assay plates to achieve the appropriate concentration of test compound in a total volume of 150 μL AB.
(§5) After 20 minutes incubation at room temperature and protected from light, the assay plates were loaded into the FlexStation microplate reader and baseline fluorescence measured with an excitation wavelength of 485 nm and emission wavelength readings centered at 525 nm (515 nm cut off).
(§6) The agonist was dispensed by the FlexStation during fluorescence measurement to construct agonist activation and antagonist inhibition curves. The final agonist concentration for inhibition was 1 μM α,β-meATP for P2X3 and 3 μM ATP for P2X2/3. Peak fluorescence was measured and curves generated using a four parameter nonlinear regression equation.

Experiment [2] concerns the target T2, human P2X2/3 (heteromeric P2X2/3 channels) (Homo sapiens, UniProt P56373+Q9UBL9).
T2 construct: expressed in transfected cells; host or cells: 1321N1 human astrocytoma cells (1321N1-hP2X2/3)
T2 sequence (P56373 1-397): T1 sequence (P56373 1-397)
T2 sequence (Q9UBL9 1-471): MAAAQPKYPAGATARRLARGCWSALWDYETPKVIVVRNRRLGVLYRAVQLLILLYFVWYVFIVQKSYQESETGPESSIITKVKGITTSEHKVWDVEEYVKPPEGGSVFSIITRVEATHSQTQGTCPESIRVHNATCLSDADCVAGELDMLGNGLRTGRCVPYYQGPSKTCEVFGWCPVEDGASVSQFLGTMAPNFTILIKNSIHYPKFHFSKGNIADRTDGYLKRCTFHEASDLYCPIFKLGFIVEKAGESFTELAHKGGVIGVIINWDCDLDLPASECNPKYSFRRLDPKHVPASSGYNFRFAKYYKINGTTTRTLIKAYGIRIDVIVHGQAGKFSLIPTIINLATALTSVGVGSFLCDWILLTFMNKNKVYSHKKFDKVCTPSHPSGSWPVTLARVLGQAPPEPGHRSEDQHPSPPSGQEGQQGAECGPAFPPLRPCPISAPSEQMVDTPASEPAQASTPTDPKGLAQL
Briefly: FlexStation calcium fluorescence assay, heteromeric P2X2/3 channels in 1321N1 cells. Format: cell-based. The settings on record: for IC50: 1321N1 cells, hP2X2/3, agonist 3 μM ATP, read-out: Average pIC50 P2X2/3 (converted); for IC50 / P2X2/3 mean pIC50, X = S: highest concentration tested is 10 μM; for P2X2/3 mean pIC50, R = OMe: Table 3B, Table 2; for P2X2/3 mean pIC50, R = OMe / P2X2/3 mean pIC50, X = S: hP2X2/3, 1321N1 (astrocytoma) cells; for P2X2/3 mean pIC50, X = S: Table 3A, sulfur-linked. As to the method: as §1, §2, §3, §4, §5, §6

`COc1cc(C(C)C)c(Sc2cnc(N)nc2N)cc1Br` [Compound 8]: the IC50 is 200 nM in experiment [1] and > 10000 nM in experiment [2].
With `COc1cc(C(C)C)c(Sc2cnc(N)nc2N)cc1-c1nnn[nH]1` [Compound 11], the IC50 is 158 nM in experiment [1] and > 10000 nM in experiment [2].
Regarding `COc1cc(Oc2cnc(NCCO)nc2N)c(C(C)C)cc1OC` [Compound 22], in experiment [1], the IC50 is 200 nM; the “Selectivity P2X3/P2X2/3” value came out at 7.9; the “Selectivity, R = OMe” value was determined as 7.9; the “P2X3 mean pIC50, R = OMe” value turned out to be 6.7. Also, in experiment [2], the IC50 was 1580 nM and the “P2X2/3 mean pIC50, R = OMe” value was found to be 5.8.
Consider `COc1nc(C(C)C)c(Oc2cnc(N)nc2N)cc1I` [Compound 15], for which the IC50 was 63.1 nM in experiment [1] and 398 nM in experiment [2]. In addition, in experiment [1], the “Selectivity P2X3/P2X2/3” value was determined as 6.5.
With `COc1cc(C(C)C)c(Sc2cnc(N)nc2N)cc1Cl` [Compound 9], in experiment [1], the IC50 is 158 nM and the “P2X3 mean pIC50, X = S” value is recorded as 6.8. Further, in experiment [2], the IC50 was > 10000 nM and the “P2X2/3 mean pIC50, X = S” value is <5.
For the molecule `COc1nc(C(C)C)c(Oc2cnc(N)nc2N)cc1C(F)(F)F` [Compound 18], the IC50 was 63.1 nM in experiment [1] and 1580 nM in experiment [2].
For the molecule `COc1cc(C(C)C)c(Sc2cnc(N)nc2N)cc1S(C)(=O)=O` [Compound 2], in experiment [1], the IC50 is 501 nM and the “P2X3 mean pIC50, X = S” value amounted to 6.3. Moreover, in experiment [2], the IC50 is > 10000 nM and the “P2X2/3 mean pIC50, X = S” value was <5.
Consider `COc1cc(Oc2cnc(NC(CCO)CCO)nc2N)c(C(C)C)cc1OC` [Compound 21], for which, in experiment [1], the IC50 was 79.4 nM and the “Selectivity P2X3/P2X2/3” value was 5.0. The IC50 in experiment [2] is 398 nM.
For `COc1cc(Oc2cnc(N)nc2Nc2ccccc2)c(C(C)C)cc1OC` [Compound 42] the same measures were 1000 nM, >10 and > 10000 nM.
For `COc1cc(Oc2cnc(N)nc2NCCS(C)(=O)=O)c(C(C)C)cc1OC` [Compound 41] the same measures were 398 nM, >27 and > 10000 nM.
For `COc1cc(Oc2cnc(N)nc2NC2CC2)c(C(C)C)cc1OC` [Compound 32] the same measures were 794 nM, 1.6 and 1260 nM.
Regarding `COc1cc(Oc2cnc(N)nc2Nc2cnccn2)c(C(C)C)cc1OC` [Compound 44], the values for the IC50 in experiment [1] and in experiment [2] were 1000 nM and > 10000 nM, respectively. In addition, the “Selectivity P2X3/P2X2/3” value in experiment [1] is reported as >10.
For `COc1cc(Oc2cnc(N)nc2NCCO)c(C(C)C)cc1OC` [Compound 37] the same measures were 1000 nM, > 10000 nM and >10.
The like results for `COc1cc(Oc2cnc(N)nc2NCCN(C)C)c(C(C)C)cc1OC` [Compound 38] were, in that order, 158 nM, 2510 nM and 17.
On to `CC#Cc1cc(Sc2cnc(N)nc2N)c(C(C)C)cc1OC` [Compound 6], for which the IC50 was 794 nM in experiment [1] and > 10000 nM in experiment [2].
Regarding `COc1cc(Oc2cnc(N)nc2Nc2cccnn2)c(C(C)C)cc1OC` [Compound 45], the IC50 in experiment [1] was 3160 nM; in experiment [2], > 10000 nM. The “Selectivity P2X3/P2X2/3” value in experiment [1] is reported as 3.5.
On to `COc1cc(C(C)C)c(Sc2cnc(N)nc2N)cc1C#N` [Compound 10], for which the IC50 in experiment [1] and in experiment [2] was > 10000 nM in each case.
On to `COCCOCCNc1ncc(Oc2cc(OC)c(OC)cc2C(C)C)c(N)n1` [Compound 24], for which the IC50 in experiment [1] is 1580 nM; in experiment [2], > 10000 nM. Besides, in experiment [1], the “Selectivity P2X3/P2X2/3” value is >5.9.
Regarding `COc1cc(Oc2cnc(NCC(C)C)nc2N)c(C(C)C)cc1OC` [Compound 25], in experiment [1], the IC50 was 631 nM and the “Selectivity P2X3/P2X2/3” value turned out to be 4.3. Also, the IC50 in experiment [2] is 2510 nM.
As to `COc1cc(Oc2cnc(N)nc2NCc2ccccc2)c(C(C)C)cc1OC` [Compound 46], in experiment [1], the IC50 was 631 nM and the “Selectivity P2X3/P2X2/3” value is on record as 4.8. Besides, the IC50 in experiment [2] was 3160 nM.
For `COc1cc(Oc2cnc(NC(C)(C)C)nc2N)c(C(C)C)cc1OC` [Compound 23] the same measures were 1000 nM, >10.5 and > 10000 nM.
In the case of `COc1cc(Oc2cnc(NC3CC3)nc2N)c(C(C)C)cc1OC` [Compound 26], in experiment [1], the IC50 was 631 nM and the “Selectivity P2X3/P2X2/3” value came out at 5.4. Further, in experiment [2], the IC50 is 3160 nM.
Take `COc1cc(Oc2cnc(N)nc2NC2CCN(C)CC2)c(C(C)C)cc1OC` [Compound 39]: in experiment [1], the IC50 was 316 nM and the “Selectivity P2X3/P2X2/3” value turned out to be 20. Also, in experiment [2], the IC50 was 6310 nM.
In the case of `COc1nc(C(C)C)c(Oc2cnc(N)nc2N)cc1S(N)(=O)=O` [Compound 20], the IC50 in experiment [1] was 20 nM; in experiment [2] it was 398 nM.
Regarding `COc1cc(Oc2cnc(NC3CCOCC3)nc2N)c(C(C)C)cc1OC` [Compound 28], in experiment [1], the IC50 is 398 nM and the “Selectivity P2X3/P2X2/3” value worked out at 3.2. For the same molecule, in experiment [2], the IC50 was 1260 nM.
As to `COc1cc(Oc2cnc(NCC(O)CO)nc2N)c(C(C)C)cc1OC` (stereo not shown) [Compound 31], in experiment [1], the IC50 is 200 nM; the “Selectivity P2X3/P2X2/3” value stood at 21; the “Selectivity, R = OMe” value came out at 20; the “P2X3 mean pIC50, R = OMe” value was 6.7. In experiment [2], the IC50 is 3980 nM and the “P2X2/3 mean pIC50, R = OMe” value turned out to be 5.4.
Take `COc1cc(Oc2cnc(NC3CCC3)nc2N)c(C(C)C)cc1OC` [Compound 27]: in experiment [1], the IC50 was 200 nM and the “Selectivity P2X3/P2X2/3” value was 2.5. In experiment [2], the IC50 was 501 nM.
Turning to `COc1nc(C(C)C)c(Oc2cnc(N)nc2N)cc1C#N` [Compound 17], the results for the IC50 in experiment [1] and in experiment [2] were 1000 nM and > 10000 nM, respectively.
Turning to `COc1cc(Oc2cnc(N)nc2NCC(C)C)c(C(C)C)cc1OC` [Compound 33], in experiment [1], the IC50 is 631 nM and the “Selectivity P2X3/P2X2/3” value was >15. Also, the IC50 in experiment [2] is > 10000 nM.
As for `C#Cc1cc(Oc2cnc(N)nc2N)c(C(C)C)nc1OC` [Compound 19], the IC50 in experiment [1] was 6.31 nM; in experiment [2], 200 nM.
On to `COc1cc(Oc2cnc(N)nc2NC2CCOCC2)c(C(C)C)cc1OC` [Compound 40], for which, in experiment [1], the IC50 was 1260 nM and the “Selectivity P2X3/P2X2/3” value is reported as >8. The IC50 in experiment [2] was > 10000 nM.
Turning to `COc1cc(Oc2cnc(N)nc2N)c(C(C)C)nc1OC` [Compound 13], the IC50 is 39.8 nM in experiment [1] and 200 nM in experiment [2].
For `COc1cc(C(C)C)c(Sc2cnc(N)nc2N)cc1C(=O)O` [Compound 12] the same measures were 5010 nM and > 10000 nM.
